Results: patent US5866576A, “Epoxide-containing compounds” (Cell Therapeutics, Inc., priority 1997, dated 1999)

Tests used:
[1] = test system: LPS-induced TNF release in whole human blood; test: LPS-induced TNF release in whole human blood (FIG. 14); type: cell-based; conditions: LPS 10 ng/ml, read-out: inhibition of TNF-α induction
Method: This example illustrates inhibitive effects of the inventive compounds on LPS-induced TNF release. Data collected is reported as percent inhibition of LPS induced TNF release in whole human blood as compared with control values of TNF release.
In this assay, whole blood was collected from a healthy human donor into Vacutainer tubes containing ACD citrate anti-coagulant. Compounds to be tested were diluted in RPMI medium and added (5 μl) to tubes containing whole blood (225 μl). The tubes were mixed and incubated for a maximum of 1 hour at 37° C. LPS Salmonella abortus equi was diluted in RPMI and added to samples at 20 μl per tube (10 ng/ml final concentration). The prepared tubes were mixed and incubated for 4-6 hours at 37° C. The reaction was terminated by adding 750 μl of RPMI to each tube, then centrifuged to remove cells. Supernatants are collected and stored overnight at 4° C. Supernatant samples are assayed for TNF release using commercial immunoassay kits.

[2] = test system: PBMC (peripheral blood mononuclear cells); test: two-way mixed lymphocyte reaction, PBMC (FIG. 1); type: cell-based; conditions: for potency in mixed lymphocyte reaction compared with PTX: PTX not shown on graph
Source text: This example illustrates the effects of inventive compounds nos. 1605, 1808 and 1906 as immune modulators in a mixed lymphocyte reaction. […] 1605, 1808 and 1906.

Ramos B-cell tumor line = test: B-cell proliferation, Ramos line stimulated with anti-mu or PMA (FIG. 3); type: cell-based, human; conditions: 250 μM, anti-mu or PMA (5 nM)
Method: A Ramos […] tumor line was treated with 250 μM 1808 or 1605 for one hour prior to stimulation of proliferation with anti-mu antibody or phorbol myristic acid (PMA, 5 nM). One day later, proliferation was measured with tritiated thymidine.
This example illustrates a comparison of inventive compounds nos. 1605 and 1808 for inhibition of B-cell proliferation. A Ramos B-cell tumor line was treated with 250 μM 1808 or 1605 for one hour prior to stimulation of proliferation with anti-mu antibody or PMA (5 nM). One day later, proliferation was measured with tritiated thymidine.

human stromal cells = test: PDGF-induced proliferation of human stromal cells (FIG. 4); type: cell-based; conditions: PDGF-BB 50 ng/ml
Method: (§1) Human stromal cells were starved in serum-free media for 24 hours and then stimulated with 50 ng/ml of PDGF-BB. The drugs were added at various indicated concentrations one hour prior to PDGF stimulation. Tritiated thymidine was added for 24 hrs at the time of PDGF stimulation to measure cellular proliferation. Background counts were approximately 5% of control levels.
as §1, with “This example illustrates a comparison of inventive compounds nos. 1605, 1808 and 1906 on PDGF-induced (platelet derived growth factor) proliferation of human stromal cells. Human” for “Human”, “hours” for “hrs”

[3] = test system: U937 cells; human umbilical vein endothelial cells (HUVEC); test: adhesion of U937 cells to TNF-α activated HUVEC (FIG. 5); type: cell-based; conditions: TNF-α 20 ng/ml, 12 hours
Method: HUVEC cells were activated with 20 ng/ml of TNF for 12 hrs. Drug was added to each culture (except for controls) one hour prior to adding TNF. U937 cells, preloaded with the fluorescent dye BCECF, were added to each culture well and then washed. Cell adhesion was determined on a fluorescence plate reader, showing a decrease in cell adhesion caused by all three drugs in a dose dependent fashion.
This example illustrates a comparison of the effects of inventive compounds nos. 1605, 1808 and 1906 to inhibit adhesion of U937 cells to activated human umbilical vein endothelial cells (HUVEC). HUVEC cells (4000/ well, seeded 72 hours in advance) were activated with 20 ng/ml of TNF-α for 12 hours. Drug was added to the HUVEC (except for controls) one hour prior to adding TNF-α. U937 cells, preloaded with the fluorescent dye BCECF, were added to each culture well and then washed twice with PBS. Cell adhesion was determined by measuring the fluorescence of adhering U937 cells on a fluorescence plate reader.

[4] = test system: vascular cell adhesion molecule-1 (VCAM) in human umbilical vein endothelial cells (HUVEC); test: cell surface expression of VCAM in TNF-α stimulated HUVEC, flow cytometry (FIG. 6); type: cell-based; conditions: TNF-α 20 ng/ml, 20 hrs
Method: The HUVEC cells were stimulated with 20 ng/ml TNF-α for 20 hrs and then stained for immunofluorescence using a monoclonal antibody recognizing VCAM, followed by a goat anti-mouse antibody conjugated to phycoerythrin. The cells were analyzed for antibody binding using flow cytometry.
This example illustrates the effects of inventive compounds nos. 1605, 1808 and 1906 to inhibit cell surface expression of vascular cell adhesion molecule-1 (VCAM) in human umbilical vein endothelial cells (HUVEC). The HUVEC cells were stimulated with 20 ng/ml TNF-α for 20 hrs and then stained for immunofluorescence using a monoclonal antibody recognizing VCAM, followed by a goat anti-mouse antibody conjugated to phycoerythrin. The cells were analyzed for antibody binding using flow cytometry.

thymocytes [5] = test: thymocyte proliferation co-stimulated with Con A and/or IL-1α (FIG. 2); type: cell-based, Balb/C mice; conditions: three dose levels
Method: The thymocytes were obtained from normal female Balb/C mice and stimulated with Concanavalin A (Con A) and/or interleukin-1 alpha (L-1α). Drugs were added to the cell cultures two hours before activation with Con A and/or IL-1α.
This example illustrates a comparison of three dose levels of inventive compounds nos. 1808 and 1906 and no drug control to inhibit thymocyte proliferation. The thymocytes were obtained from normal female Balb/C mice and co-stimulated with Concanavalin A (Con A) and/or IL-1α (interleukin-1 alpha). The thymuses were dissociated and plated into 96-well plates at a density of 2×10^5 cells/well. Dilutions of Con A and/or IL-1α were added to the wells and the cells were incubated for 4 days at 37° C. Drugs were added to the cell cultures two hours before activation with Con A and/or IL-1α. On day 4, the cells were pulsed with tritiated thymidine and allowed to incubate an additional 4 hrs. The cells were harvested and counted.

Balb/3T3 cells [6] = test: PDGF-stimulated Balb/3T3 cell proliferation; type: cell-based; conditions: FIGS. 8A (1409), 8B (1560); PDGF/BB
Method: Balb/3T3 cells respond vigorously to PDGF stimulation, and are useful in vitro models for further study of PDGF-induced proliferation. Disregulated PDGF-proliferative response has been linked to a variety of diseases, including, e.g., restenosis, atherosclerosis, fibrosis, and tumor cell angiogenesis.
Balb/3T3 cells were maintained in exponential growth. The cells were removed from a flask with EDTA and plated into 96 well plates at 3000 cells/well. After 48 hours, the media was removed, the cells washed once with PBS and serum free media and the cultures allowed to rest for a 24 hour period. Inventive compounds were added to the wells containing media and Balb/3T3 cells one hour prior to incubation with PDGF/BB, added at constant 10 μM concentrations along with 1 μ Ci 3-H-thymidine dye. Cells were subsequently incubated for 18-24 hours, harvested, and incorporated thymidine assessed on a Packard Topcount to determine degree of cell proliferation. Data obtained in this assay was used to determine experimental 50% inhibition concentrations for the inventive compounds tested.

Balb/3T3 cells [7] = test: Balb/3T3 cytotoxicity assay (BCECF-AM); type: cell-based; conditions: FIGS. 8C, 8D
Method: In conjuction with the Balb/3T3 proliferation assay conducted above, a Balb/3T3 cytotoxicity assay was conducted to determine that the inhibition on proliferation was not due to cytotoxic effects. This assay is similar to the assay decribed above except tritiated thymidine was not added and after 18-24 hours incubation with PDGF/BB and a lOuM solution of 2,7-bis-(2-carboxyethyl)-5(and-6)carboxyflouresceinacetoxymethyl ester (BCECF-AM) was added for 30 minutes at 37° C. (BCECF is a compound that when cleaved by esterases, yields a fluorescent product in viable cells only, therefore providing a measure of viable cell numbers). Following sufficient incubation, BCECF is replaced with PBS and the plate examined with flourescence in a Millipore "cytofluor." The data is compiled and plotted.

thymocytes [8] = test: murine thymocyte proliferation assay co-stimulated by ConA and IL-2 (FIGS. 7A-7E); type: cell-based, Balb/C mice; conditions: Mus musculus, FIG. 7A
Source text: This example illustrates dose response curves used to generate 50% inhibition concentrations (IC50) for inventive compounds nos. 1410, 1439, 1541, 1553, 1553S, 1560, 1565, 2548R, 2548S and 2562 in a murine thymocyte proliferation assay, co-stimulated by Concanavalin A (ConA) and interleukin-2 alpha (IL-2). ConA, used to activate the T-cell receptor (TCR), along with IL-2 co-stimulation, induces T-cell proliferation and differentiation. Thymuses, obtained from normal, female Balb/C mice, were dissociated and plated into 96-well plates at a density of 2×10^5 cells/well. ConA (0.25 mg/ml) and IL-2 (15 U/ml) were added to the wells. The cells were incubated for 4 days at 37° C. On day 4, the cells were pulsed with tritiated thymidine and incubated for an additional 4 hours. The amount of tritiated thymidine incorporated by the harvested cells was determined in a liquid scintillation counter. Doses of inventive compounds (shown in FIGS. 7A-7E) were added two hours prior to ConA and IL-2 activation. Background counts were less than 200 cpm. Results obtained, illustrate the ability of the inventive compounds to inhibit thymocyte proliferation and activation. In FIG. 7A, inventive compounds nos. […] FIG. 7B presents additional data for compound no. 1410 and 1553S in this assay. […] FIG. 7C reports assay results for inventive compounds nos. 1439, 1541, 1560 and 1565. […] FIGS. 7D and 7E illustrate assay results for inventive compounds nos. 1541, 1553, 1560 and 1565 (FIG. 7D) and 2562, […] (FIG. 7E). As is true of other inventive compounds tested, all these compounds represented in FIGS. 7D and 7E inhibit thymocyte proliferation. […] 1541, 1553, 1560, 1565, 2562, 2548R and 2548S, respectively.

CCCCCCCCC1OC1CCCCCCCCn1c(=O)c2c(ncn2C)n(C)c1=O (centres unmarked) [Compound 2541, 1-(9,10-Oxidooctadecyl)-3,7-dimethylxanthine]
inhibition at 50 µM [1]: 25%

O=C1CCCC(=O)N1CCCCC1CO1 (centres unmarked) [Compound 1605, N-(5,6-Oxidohexyl) glutarimide]
activity in mixed lymphocyte reaction (immune modulation) [2]: demonstrated activity
potency in mixed lymphocyte reaction compared with PTX [2]: more potent than PTX
inhibition of B-cell proliferation (Ramos B-cell tumor line): inhibited proliferation
inhibition of PDGF-induced proliferation (human stromal cells): inhibited PDGF-induced stimulation in a dose response fashion
inhibition of U937 cell adhesion to HUVEC [3]: decrease in cell adhesion induced by TNF-α in a dose dependent fashion
mean fluorescence (VCAM surface expression) [4]: Mean fluorescence levels were decreased

Cc1cn(C)c(=O)n(CCCCC2CO2)c1=O (centres unmarked) [Compound 1906, 3-(5,6-Oxidohexyl)-1-methylthymine]
activity in mixed lymphocyte reaction (immune modulation) [2]: demonstrated activity
potency in mixed lymphocyte reaction compared with PTX [2]: more potent than PTX
inhibition of thymocyte proliferation (thymocytes [5]): inhibited thymocyte proliferation is a dose-dependent fashion
inhibition of PDGF-induced proliferation (human stromal cells): inhibited PDGF-induced stimulation in a dose response fashion
inhibition of U937 cell adhesion to HUVEC [3]: decrease in cell adhesion induced by TNF-α in a dose dependent fashion
mean fluorescence (VCAM surface expression) [4]: Mean fluorescence levels were decreased

Cn1c(=O)n(CCCCCCCC2CO2)c(=O)c2c1ncn2COC(=O)C(C)(C)C (centres unmarked) [Compound 1409, 1-(8,9-Oxidononyl)-3-methyl-7-methylpivaloylxanthine]
inhibition of Balb/3T3 proliferation (Balb/3T3 cells [6]): inhibit Balb/3T3 proliferation
cytotoxic effects (Balb/3T3 cells [7]): without exhibiting cytotoxic effects

Cn1ccc(=O)n(CCCCC2CO2)c1=O (centres unmarked) [Compound 1808, 3-(5,6-Oxidohexyl)-1-methyluracil]
activity in mixed lymphocyte reaction (immune modulation) [2]: demonstrated activity
potency in mixed lymphocyte reaction compared with PTX [2]: more potent than PTX
inhibition of thymocyte proliferation (thymocytes [5]): inhibited thymocyte proliferation is a dose-dependent fashion
inhibition of B-cell proliferation (Ramos B-cell tumor line): inhibited proliferation
inhibition of PDGF-induced proliferation (human stromal cells): inhibited PDGF-induced stimulation in a dose response fashion
inhibition of U937 cell adhesion to HUVEC [3]: decrease in cell adhesion induced by TNF-α in a dose dependent fashion
mean fluorescence (VCAM surface expression) [4]: Mean fluorescence levels were decreased
IC50 (thymocytes [8]): 99 µM
